The source of these data is PMC12213745, “Compounds from Cyclocarya paliurus leaves inhibit binary division of methicillin-resistant Staphylococcus aureus by disrupting FtsZ dynamic” (Frontiers in Microbiology, 2025).

In brackets after ≈: the same amount, converted by molar mass. Read-outs that look alike come from different tables or passages of the source.

For experiment [1], the system named is E. coli ATCC25922. Description: MIC, broth microdilution (CLSI). The format is cell-based. Conditions: Escherichia coli. An excerpt:
(§1) Staphylococcus aureus ATCC25923 and Escherichia coli ATCC25922 were obtained from the American Type Culture Collection (ATCC, Manassas, VA, USA). The Methicillin-resistant S. aureus (MRSA) clinical isolate MRSA-4, previously confirmed as mecA-positive and characterized for its antibiotic resistance profile ([Sun et al., 2023]), was used in this study. Staphylococcus epidermidis (GDMCC 1.143), Enterococcus faecalis (GDMCC 1.164), and Salmonella enterica subsp. enterica (GDMCC 1.1114) were obtained from the Guangdong Microbial Culture Collection Center (GDMCC, Guangzhou, China). The Pseudomonas aeruginosa PA14 strain was kindly provided by Professor Min Wu (Southwest Medical University, China). All bacterial strains were routinely cultured in Mueller-Hinton broth (MHB) or Luria-Bertani (LB) broth medium at 37°C with shaking at 200 rpm. Vancomycin was purchased from Solarbio Science & Technology Co., Ltd. (Beijing, China), and oxacillin was obtained from Taiji Group Hengsheng Pharmaceutical Co., Ltd. (Chengdu, China). The polyclonal rabbit primary anti-body to FtsZ was purchased from Abcam PLC (Cambridge, UK). Alexa488-conjugated goat anti-rabbit IgG was purchased from ZSGB-BIO Biotechnology (Beijing, China). DAPI staining solution was purchased from Beyotime Biotechnology (Shanghai, China).
(§2) The minimum inhibitory concentrations (MICs) of the test compounds (AA, MA, and UA) were determined using the standard broth microdilution method in accordance with the Clinical and Laboratory Standards Institute (CLSI) guidelines ([Humphries et al., 2021]). Bacteria were cultured in MHB or LB broth at 37°C with shaking (200 rpm) to the logarithmic phase, then diluted to a final density of 1 × 10^6 CFU/mL. Test compounds (dissolved in DMSO) and positive controls (vancomycin and oxacillin) were diluted in MHB and serially twofold diluted in 96-well plates. Each well was inoculated with 100 μL of bacterial suspension (1 × 10^6 CFU/mL), yielding a final bacterial density of 5 × 10^5 CFU/mL and a total volume of 200 μL. The final concentrations tested were 128 to 1 μg/mL for AA, MA, and UA; 16 to 0.5 μg/mL for vancomycin; and 64 to 0.0625 μg/mL for oxacillin. DMSO was used as a solvent control. Plates were incubated statically at 37°C for 18–24 h. After incubation, the OD600 was measured using a microplate reader (SpectraMax i3x, Molecular Devices, CA, USA). The MIC was defined as the lowest compound concentration that caused ≥ 90% inhibition of bacterial growth compared to the drug-free growth control. All tests were performed in three independent biological replicates.
(§3) Following the isolation and identification of AA, MA, and UA from ECPL, we evaluated their antibacterial activity and spectrum. The MICs of the compounds were determined against MRSA-4, S. aureus ATCC25923, S. epidermidis, and E. faecalis (Gram-positive), as well as P. aeruginosa PA14, E. coli ATCC25922, and S. enterica subsp. Enterica (Gram-negative) using the standard broth microdilution method in accordance with CLSI guidelines ([Humphries et al., 2021]).

Experiment [2] concerns E. faecalis. Kind of experiment: MIC, broth microdilution (CLSI). The format is cell-based. Conditions: Enterococcus faecalis.
Text: as §1, §2, §3
Background: In broth dilution the organism is exposed to a series of concentrations in liquid medium.

Experiment [3] concerns P. aeruginosa PA14. Kind of experiment: MIC, broth microdilution (CLSI). The format is cell-based. Conditions: Pseudomonas aeruginosa.
Text: as §1, §2, §3

Experiment [4] relates to S. aureus ATCC25923. Kind of experiment: MIC, broth microdilution (CLSI). Type of experiment: cell-based. Conditions: Staphylococcus aureus.
Text: as §1, §2, §3

For experiment [5], the system named is S. epidermidis (1.143). Kind of experiment: MIC, broth microdilution (CLSI). The format is cell-based. Conditions: Staphylococcus epidermidis.
Text: as §1, §2, §3

The target of experiment [6] is T1, SaFtsZ (Staphylococcus aureus, UniProt P0A031).
T1 construct: purchased Cytoskeleton, Inc. FTZ02
T1 sequence (P0A031 1-390): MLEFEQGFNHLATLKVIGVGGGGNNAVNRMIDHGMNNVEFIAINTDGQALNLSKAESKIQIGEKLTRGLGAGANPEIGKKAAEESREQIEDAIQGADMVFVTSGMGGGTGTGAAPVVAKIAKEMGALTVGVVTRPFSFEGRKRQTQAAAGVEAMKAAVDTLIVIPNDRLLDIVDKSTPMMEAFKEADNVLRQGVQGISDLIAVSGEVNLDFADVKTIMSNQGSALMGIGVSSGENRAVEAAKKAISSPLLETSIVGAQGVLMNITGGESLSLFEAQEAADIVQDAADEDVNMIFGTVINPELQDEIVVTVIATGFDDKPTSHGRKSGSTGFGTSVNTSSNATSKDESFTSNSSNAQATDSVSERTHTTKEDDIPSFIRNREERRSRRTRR
Description: FtsZ polymerization assay (A360). Type of experiment: biochemical. Conditions: 10 μM SaFtsZ; 0.25 × and 0.5 × MIC; vs DMSO control. As to the method:
To assess the effects of AA, MA, and UA on FtsZ polymerization, an in vitro FtsZ polymerization assay was performed. […] Polymerization was initiated by the addition of polymerization buffer components, bringing the final concentrations to 250 mM KCl and 5 mM MgCl2 Absorbance at 360 nm (A360) was monitored for 5 min to establish a stable baseline. GTP was then added to a final concentration of 1 mM. Polymerization was tracked by measuring A360 for 30 min using a microplate reader (SpectraMax i3x, Molecular Devices, CA, USA).
To determine whether the disruptions of Z-ring were due to direct effects on FtsZ polymerization, we performed in vitro polymerization assays. FtsZ polymerization was assessed by monitoring the time-dependent increase in A360 upon induction using a microplate reader. Briefly, 10 μM SaFtsZ was pre-incubated with AA, MA, UA or DMSO, and polymerization was initiated by adding K^+, Mg^2+, and GTP.

Where [7] appears, read: E. coli ATCC25922, ≥ 90% growth inhibition, 18–24 h, read-out: MIC.
The mark [8] stands for this setting: E. faecalis, ≥ 90% growth inhibition, 18–24 h, read-out: MIC.
[9] abbreviates: P. aeruginosa PA14, ≥ 90% growth inhibition, 18–24 h, read-out: MIC.
Where [10] appears, read: S. aureus ATCC25923, ≥ 90% growth inhibition, 18–24 h, read-out: MIC.
Setting [11] is: S. epidermidis (1.143), ≥ 90% growth inhibition, 18–24 h, read-out: MIC.

Turning to `C[C@H]1[C@H](C)CC[C@]2(C(=O)O)CC[C@]3(C)C(=CC[C@@H]4[C@@]5(C)CC[C@H](O)C(C)(C)[C@@H]5CC[C@]43C)[C@H]12` [UA, ursolic acid], the minimum inhibitory concentration (MIC) (commonly the least concentration at which growth counts as inhibited) in experiment [1] (setting [7]) is above 128 µg/mL; in experiment [2] (setting [8]), 2 µg/mL (≈ 4.38 µM); in experiment [3] (setting [9]) it was above 128 µg/mL; in experiment [4] (setting [10]), 16 µg/mL (≈ 35 µM); in experiment [5] (setting [11]), 8 µg/mL (≈ 17.5 µM). The “effect on FtsZ polymerization (A360)” value in experiment [6] was “markedly inhibited FtsZ polymerization”.
Take `CC1(C)CC[C@]2(C(=O)O)CC[C@]3(C)C(=CC[C@@H]4[C@@]5(C)C[C@@H](O)[C@H](O)C(C)(C)[C@@H]5CC[C@]43C)[C@@H]2C1` [MA, maslinic acid]: the MIC in experiment [1] (ATCC25922) is above 128 µg/mL; in experiment [2], 4 µg/mL (≈ 8.46 µM); in experiment [3] (PA14), above 128 µg/mL; in experiment [4] (ATCC25923) it was 32 µg/mL (≈ 67.7 µM); in experiment [5] it was 8 µg/mL (≈ 16.9 µM). In addition, the “effect on FtsZ polymerization (A360)” value in experiment [6] is on record as “markedly inhibited FtsZ polymerization”.
Regarding `C[C@H]1[C@H](C)CC[C@]2(C(=O)O)CC[C@]3(C)C(=CC[C@@H]4[C@@]5(C)C[C@@H](O)[C@H](O)[C@@](C)(CO)[C@@H]5CC[C@]43C)[C@H]12` [AA, asiatic acid], the minimum inhibitory concentration (MIC) in experiment [1] (setting [7]) is above 128 µg/mL; in experiment [2] (setting [8]), 16 µg/mL (≈ 32.7 µM); in experiment [3] (setting [9]), above 128 µg/mL; in experiment [4] (setting [10]) it was 32 µg/mL (≈ 65.5 µM); in experiment [5] (setting [11]), 16 µg/mL (≈ 32.7 µM). Moreover, the “effect on FtsZ polymerization (A360)” value in experiment [6] was “significantly enhanced FtsZ polymerization”.
